Patent US10864210B2, “Composition and combined medication method for treating enterovirus infection” (priority 2016, dated 2020)

Columns and labels:
Format in all cases: cell-based, Enterovirus 71
EV71 [1] = assay: Evaluation experiment for compounds: inhibition of EV71-induced CPE in RD cells (CellTiter-Glo); settings: single compound, 2-fold dilutions
Protocol: Itraconazole purchased from Sigma-Aldrich is dissolved in DMSO to a final concentration of 10 mM; suramin purchased from Bayer is dissolved in a medium containing 2% FBS to a final concentration of 50 mM; favipiravir purchased from Chembest is dissolved in DMSO to a final concentration of 400 mM; rupintrivir purchased from Santa Cruz is dissolved in DMSO to a final concentration of 2 mM; and GW5074 purchased from Sigma is dissolved in DMSO to a final concentration of 10 mM. To evaluate the inhibition of EV71-induced CPE activity by five compounds, the inventors perform dose dependent experiments.
The raw data are input into an Excel sheet to calculate the signal-to-background ratio (S/B), the signal-to-noise ratio (S/N), Z factor, and the inhibition rate of the test compound against the virus. […] The antiviral activity of the compound CPE inhibition rate=(μcpd−μv)/(μc−μv)×100%, wherein μcpd represents the average signal intensity of the test compound; and the effect of the compound on the cell, cell survival rate=μcpd/μc×100%. The half maximum effect concentration (EC50) is a concentration that causes a 50% maximum effect. The half-cytotoxic concentration (CC50) refers to a concentration of the medicament that causes 50% cytotoxicity, which is expressed in this experiment as a 50% reduction in the fluorescence intensity of the experimental group compared with the control group.
(A) 2-fold dilution of itraconazole, rupintrivir, favipiravir, suramin, and GW5074 were separately added to RD cells, and virus or medium was added and cultured for 96 hours. The cell viability was measured by CellTiter-Glo kit. The inhibitory effects of […] compounds on EV71 and the toxic effects on cells were examined. (B) Virus and 2-fold dilution of itraconazole, rupintrivir, favipiravir, suramin, and GW5074 were separately added into RD cells. After 48 hours of culture, the supernatant was collected and the viral titer was determined by TCID50 method. The results were processed using Graphpad Prism5. The data in the figure were obtained from two independent parallel experiments, and the error bars represent the standard deviation of the two parallel experiments.

[2] = test system: EV71 containing 3D protein mutation; assay: Mutant virus resistance experiment based on cytopathic effect in Vero cells; settings: CPE-based
Protocol: To determine the resistance of the selected mutant virus and recombinant virus to the compound, the inventors conduct experiments based on cytopathic effects and viral titer reduction experiments. […] EV71 G082 strain is served as a control.
The supernatant from the 16th passage culture was collected and sequenced. EV71 containing 3D protein mutation was constructed by reverse genetics system. The viral titer was determined by plaque formation assay, the virus resistance to favipiravir was detected by viral titer reduction experiment. The experimental method was the same as the compound verification experiment. (B) The effects of itraconazole, rupintrivir, suramin and GW5074 on a virus containing 3D protein mutation were determined using an experiment based on cytopathic effect. The results were processed using Graphpad Prism5. The data in the figure were obtained from two independent parallel experiments, and the error bars represent the standard deviation of the two parallel experiments.

EV71 [3] = assay: Viral titer reduction experiment (single compound)
Protocol: (§1) RD cells are seeded in a 12-well plate with 3×10^5 cells/well, cultured overnight at 37° C. for 24 hours. Then EV71 virus solution with MOI=0.1 and 2-fold dilution of itraconazole, rupintrivir, favipiravir, suramin and GW5074 are added and cultured at 37° C. for 48 h. The supernatant is collected, frozen in a −80° C. refrigerator, and then determined for viral titer. To determine the resistance of the passaged virus to favipiravir, the inventors inoculate Vero cells in a 12-well plate, 3×10^5 cells/well and culture overnight at 37° C. After 24 hours, EV71 virus solution with MOI=0.1 is added and 300 μM and 600 μM favipiravir are separately added. After cultured at 37° C. for 48 hours, the supernatant is collected and frozen in a −80° C. refrigerator, and then the viral titer is measured.
EV71, itraconazole, and 0.5 μM or 1 μM of rupintrivir were simultaneously added to Vero cells, the virus was subcultured, and the supernatant was collected.

[4] = test system: EV71 having amino acid residue mutation at position 121 in the 3D protein; assay: Favipiravir resistance screening and viral titer reduction experiment in Vero cells; settings: viral titer reduction
Protocol: as §1
The present inventors conduct a passage experiment to screen a favipiravir resistant strain. 3×10^5 Vero cells are seeded in a 12-well plate, cultured overnight at 37° C. […] After 16 continuous passages, the titer of the virus in the supernatant, the resistance to the compound, and sequencing are determined. […]
The supernatant from the 16th passage culture was collected and sequenced. […] The viral titer was determined by plaque formation assay, the virus resistance to favipiravir was detected by viral titer reduction experiment. […]

Question: Which results are given for CCOC(=O)/C=C/[C@H](C[C@@H]1CCNC1=O)NC(=O)[C@@H](CC(=O)[C@@H](NC(=O)c1cc(C)on1)C(C)C)Cc1ccc(F)cc1 [rupintrivir]?
Answer: inhibition of EV71 infection of cells (EV71 [1]): effective in inhibiting EV71 infection of cells in a dose-dependent manner; cross-resistance of favipiravir-resistant mutant virus compared with wild type virus (G082) [2]: no cross-resistance was found

Question: Which “inhibition of EV71 infection of cells” value (EV71 [1]) does the source give for Cc1ccc(C(=O)Nc2ccc(S(=O)(=O)O)c3cc(S(=O)(=O)O)cc(S(=O)(=O)O)c23)cc1NC(=O)c1cccc(NC(=O)Nc2cccc(C(=O)Nc3cc(C(=O)Nc4ccc(S(=O)(=O)O)c5cc(S(=O)(=O)O)cc(S(=O)(=O)O)c45)ccc3C)c2)c1 [suramin] here?
Answer: Its value is “effective in inhibiting EV71 infection of cells in a dose-dependent manner”.

Question: What about the “cross-resistance of favipiravir-resistant mutant virus compared with wild type virus (G082)” value [2] of the same compound?
Answer: Its value is “no cross-resistance was found”.

Question: Which results are given for CCC(C)n1ncn(-c2ccc(N3CCN(c4ccc(OCC5COC(Cn6cncn6)(c6ccc(Cl)cc6Cl)O5)cc4)CC3)cc2)c1=O (centres unmarked) [itraconazole]?
Answer: removal of viruses in the cell culture by single compound (EV71 [3]): could not remove all the viruses in the cell culture; inhibition of EV71 infection of cells (EV71 [1]): effective in inhibiting EV71 infection of cells in a dose-dependent manner; cross-resistance of favipiravir-resistant mutant virus compared with wild type virus (G082) [2]: no cross-resistance was found

Question: For NC(=O)c1nc(F)cnc1O [favipiravir], which “resistance of EV71 with position 121 3D protein mutation to the compound” value [4] is on record?
Answer: The value was “resistant”.

Question: What about the “inhibition of EV71 infection of cells” value (EV71 [1]) of the same compound?
Answer: Its value is “effective in inhibiting EV71 infection of cells in a dose-dependent manner”.

Question: How did the “inhibition of EV71 infection of cells” value (EV71 [1]) turn out when O=C1Nc2ccc(I)cc2/C1=C/c1cc(Br)c(O)c(Br)c1 [GW5074] was run?
Answer: Its value is “effective in inhibiting EV71 infection of cells in a dose-dependent manner”.

Question: What about the “cross-resistance of favipiravir-resistant mutant virus compared with wild type virus (G082)” value [2] of the same compound?
Answer: Its value is “no cross-resistance was found”.
